Laboratory results published in ChEMBL document CHEMBL1201862, “PubChem BioAssay data set” (2004).
Active and inactive are the calls of the source.

Key:
Format in all cases: functional
[1] = target: T1, Short transient receptor potential channel 4 (Mus musculus, UniProt Q9QUQ5); assay: mouse TRPC4 channel activators, dose response, cell-based, HEK293 TRPC4/mu-opioid, Fluo-4 calcium (AID 434937)
T1 sequence (Q9QUQ5 whole entry): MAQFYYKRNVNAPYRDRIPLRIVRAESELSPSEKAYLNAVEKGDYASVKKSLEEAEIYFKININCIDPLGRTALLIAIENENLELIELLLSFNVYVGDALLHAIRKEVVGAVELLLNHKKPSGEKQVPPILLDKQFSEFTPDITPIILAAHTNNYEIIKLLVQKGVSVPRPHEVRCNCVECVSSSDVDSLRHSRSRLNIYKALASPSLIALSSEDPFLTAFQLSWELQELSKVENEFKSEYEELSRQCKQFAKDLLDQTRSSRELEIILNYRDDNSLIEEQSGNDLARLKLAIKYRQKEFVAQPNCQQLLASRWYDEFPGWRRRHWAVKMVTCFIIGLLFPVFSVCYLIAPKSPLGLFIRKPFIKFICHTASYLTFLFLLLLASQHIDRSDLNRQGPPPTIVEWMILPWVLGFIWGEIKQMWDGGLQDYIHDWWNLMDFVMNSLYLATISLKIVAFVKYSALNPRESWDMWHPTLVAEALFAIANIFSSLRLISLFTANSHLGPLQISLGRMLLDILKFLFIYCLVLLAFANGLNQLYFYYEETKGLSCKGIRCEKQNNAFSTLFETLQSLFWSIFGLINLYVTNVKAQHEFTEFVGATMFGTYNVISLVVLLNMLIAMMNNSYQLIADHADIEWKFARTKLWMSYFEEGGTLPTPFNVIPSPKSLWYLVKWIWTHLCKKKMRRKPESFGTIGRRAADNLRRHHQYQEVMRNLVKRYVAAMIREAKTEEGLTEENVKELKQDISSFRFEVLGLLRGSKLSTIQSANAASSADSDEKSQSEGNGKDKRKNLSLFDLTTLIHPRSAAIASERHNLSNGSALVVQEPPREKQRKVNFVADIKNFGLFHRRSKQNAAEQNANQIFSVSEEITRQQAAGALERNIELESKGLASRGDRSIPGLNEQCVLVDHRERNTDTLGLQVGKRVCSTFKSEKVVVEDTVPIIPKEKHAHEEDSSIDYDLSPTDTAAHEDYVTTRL

[2] = target: Delta-type opioid receptor (Homo sapiens, UniProt P41143); assay: Counterscreen for agonists of heterodimerization of the mu 1 (OPRM1) and delta 1 (OPRD1) opioid receptors: Luminescence-based cell-based high throughput dose response assay to identify agonists of OPRD1 homodimerization. [Related pubchem assays (depositor defined):AID504326, AID504355, AID504692, AID504904, AID504905]
Chain of Delta-type opioid receptor (P41143 whole entry): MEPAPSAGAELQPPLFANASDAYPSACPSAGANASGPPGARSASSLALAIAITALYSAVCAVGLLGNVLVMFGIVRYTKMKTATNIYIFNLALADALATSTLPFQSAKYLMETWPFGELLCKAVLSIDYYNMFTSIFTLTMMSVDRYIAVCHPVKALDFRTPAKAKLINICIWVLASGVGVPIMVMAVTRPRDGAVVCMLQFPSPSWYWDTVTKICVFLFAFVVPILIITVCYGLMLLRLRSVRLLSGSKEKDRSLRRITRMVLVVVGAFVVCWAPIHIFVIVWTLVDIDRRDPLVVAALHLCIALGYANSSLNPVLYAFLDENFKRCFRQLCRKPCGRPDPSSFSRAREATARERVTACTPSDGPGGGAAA

Mu-type opioid receptor = Mu-type opioid receptor (Homo sapiens, UniProt P35372); assay: Counterscreen for agonists of heterodimerization of the mu 1 (OPRM1) and delta 1 (OPRD1) opioid receptors: Luminescence-based cell-based high throughput dose response assay to identify agonists of OPRM1 homodimerization.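 Note: U2OS cells expressing OPRM1 and beta-arrestin as split beta-galactosidase partners.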
Chain of Mu-type opioid receptor (P35372 whole entry): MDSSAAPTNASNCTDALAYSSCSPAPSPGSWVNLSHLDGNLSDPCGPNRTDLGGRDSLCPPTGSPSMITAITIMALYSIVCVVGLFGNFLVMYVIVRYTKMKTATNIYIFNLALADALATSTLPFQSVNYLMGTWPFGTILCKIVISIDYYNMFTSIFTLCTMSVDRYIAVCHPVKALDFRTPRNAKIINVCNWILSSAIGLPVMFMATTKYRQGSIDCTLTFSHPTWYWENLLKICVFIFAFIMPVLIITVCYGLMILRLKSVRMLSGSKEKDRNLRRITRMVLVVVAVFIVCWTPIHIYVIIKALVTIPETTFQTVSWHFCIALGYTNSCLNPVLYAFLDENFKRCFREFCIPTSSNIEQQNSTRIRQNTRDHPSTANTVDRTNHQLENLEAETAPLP

[3] = target: Opioid receptors; mu & delta (Homo sapiens, UniProt P41143+P35372); assay: agonists of MOR-DOR heterodimerization, dose response, cell-based, luminescence (AID 588407)
[4] = target: 5-hydroxytryptamine receptor 5A (Homo sapiens, UniProt P47898); assay: Counterscreen for agonists of OPRM1-OPRD1 heterodimerization: luminescence-based cell-based high throughput dose response assay to identify agonists of 5-hydroxytryptamine (serotonin) 5A receptor (HTR5A). [Related pubchem assays (depositor defined):AID504326, AID504355, AID504692, AID504904, AID504905]
Chain of 5-hydroxytryptamine receptor 5A (P47898 whole entry): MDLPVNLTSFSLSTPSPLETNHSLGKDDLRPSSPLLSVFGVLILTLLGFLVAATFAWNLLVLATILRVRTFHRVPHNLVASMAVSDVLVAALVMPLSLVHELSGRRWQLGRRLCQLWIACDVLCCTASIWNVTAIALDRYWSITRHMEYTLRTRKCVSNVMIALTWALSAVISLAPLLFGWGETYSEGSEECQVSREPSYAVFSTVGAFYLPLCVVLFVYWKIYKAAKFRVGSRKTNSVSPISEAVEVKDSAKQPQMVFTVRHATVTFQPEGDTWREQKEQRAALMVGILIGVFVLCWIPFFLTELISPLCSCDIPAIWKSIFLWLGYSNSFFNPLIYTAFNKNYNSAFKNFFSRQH

[5] = target: Beta-2 adrenergic receptor (Homo sapiens, UniProt P07550); assay: beta2AR agonists driving receptor internalization, dose response, cell-based, FAP fluorogen, flow cytometry, cherry pick 1 (AID 588763)
Chain of Beta-2 adrenergic receptor (P07550 whole entry): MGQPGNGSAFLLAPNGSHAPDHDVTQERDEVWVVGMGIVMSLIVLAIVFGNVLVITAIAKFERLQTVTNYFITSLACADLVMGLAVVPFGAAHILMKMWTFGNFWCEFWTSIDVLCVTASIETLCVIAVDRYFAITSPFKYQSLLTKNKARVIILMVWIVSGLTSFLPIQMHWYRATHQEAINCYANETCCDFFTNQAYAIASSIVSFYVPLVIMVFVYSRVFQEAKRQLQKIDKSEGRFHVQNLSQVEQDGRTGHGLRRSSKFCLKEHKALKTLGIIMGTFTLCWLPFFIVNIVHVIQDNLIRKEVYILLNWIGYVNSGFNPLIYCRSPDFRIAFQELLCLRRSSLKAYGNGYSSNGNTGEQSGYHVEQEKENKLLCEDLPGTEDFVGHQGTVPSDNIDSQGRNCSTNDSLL

Row | Compound | EC50 [1] | EC50 [2] | EC50 (Mu-type opioid receptor) | EC50 [3] | EC50 [4] | EC50 [5]
1 | Cc1ccc(-n2cc(CNC(C)c3cnn(C)c3C)c(-c3ccc(F)cc3)n2)cc1 (stereo unspecified) | 0.376 µM (active) | 50 µM (inactive) | 13 µM (inactive) | > 0.1268 µM | > 92.5 µM (inactive) | 
2 | CCc1ccc(CN2CCC(Oc3ccc(C(=O)N4CCCC4)cc3)CC2)cc1 |  |  |  |  |  | 0.936 µM (active)
